Results published in patent US20040213837A1, “Oil-core compositions for the sustained release of hydrophobic drugs” (priority 2002, published 2004).
Converted amounts (≈) assume the structure as drawn. Structures can show the parent of a compound that is named as a salt.

Experiments:
[1] = In vivo concentration-time course of paclitaxel after intraperitoneal injection; details: rat, 16 mg/kg intraperitoneal, OCP or conventional formulation, HPLC
Description: “Conventional” formulations of paclitaxel were prepared by adding 6 mg paclitaxel to 1 mL of a mixture (1:1, v/v) of anhydrous alcohol and Cremophor® EL (Sigma Chemical Company, St. Louis, Mo.). […] At the indicated time points, animals were euthanized and blood, peritoneal fluid, liver, and spleen samples were collected, processed and quickly frozen.
Paclitaxel concentrations in plasma, peritoneal fluid, and homogenized tissues were determined by HPLC after liquid-liquid extraction of the samples with diethyl ether followed by solid-phase extraction (Bond Elut; Varian, Harbor City, Calif.). The samples were then suspended in 45:15:40 acetonitrile:methanol:water, and 50 μL was injected onto a Waters Symmetry C18 column (Waters, Taunton, Mass.) with a Hewlett-Packard Model 1100 solvent delivery system (Hewlett-Packard, Wilmington, Del.). The mobile phase was a mixture of acetonitrile, methanol, and 0.2 M ammonium acetate at pH 5 (45:15:40) with a rate of 1 mL/min; detection was at a wavelength of 230 nm. Apparent terminal half-lives (T1/2beta) were estimated from the terminal log-linear decline of the concentration-time profiles.

microtubule bundling = details: Rowinsky et al., Cancer Research 48: 4093-4100, 1988; cited from earlier work
[2] = Solubility of bupivacaine free-base in triolein or tricaprylin; format: physicochemical
Description: To confirm that the formation of bupivacaine crystals was related to differing solubility of the drug in the oils used, a solubility experiment was performed. Varying amounts of bupivacaine free-base were added to 1.0 g aliquots of either triolein or tricaprylin in small vials with Teflon-lined screw caps. These vials were heated to ˜70° C., shaken vigorously, cooled to room temperature, then 1.0 mL of 10 mM lysine/5% sorbitol was added to each vial. The vials were put in a 4° C. cold room for a month. […] This vial was the only one in which a precipitate disappeared upon warming to room temperature.

response to pin pricks = test: Guinea pig intracutaneous injection, response to pin pricks; format: in vivo, guinea pigs; details: 1.0 mL intracutaneous, equivalent to 1% bupivacaine HCl monohydrate
Description: This is used in an assay of anesthetic effect. Previously shaved guinea pigs (4-5 per group) were marked with a stencil in the form of a circular array, with 17 tick marks at various radii and directions from the center of the array. Animals anesthetized with Halothane were injected intracutaneously with 1.0 mL of either the tricaprylin-core bupivacaine suspension or a solution of 1% bupivacaine HCl monohydrate in 5% sorbitol. The response to pin pricks was tested at various post-injection intervals (30 min, 3, 6, 9, 12, 18, 24, 30 and 36 hours) and the results summarized in FIG. 3. A vocalization or muscle twitch was considered a positive response. The guinea pigs' response to the bupivacaine solution decayed to half of its maximum at about 3.6 hours after injection. An equivalent (on a molar basis) dose of bupivacaine free base tricaprylin-core suspension took about 8½ hours to decay to the same number of negative responses, and took about 11 hours to decay to half of the maximal response for this formulation.

[3] = 4° C. for a month, with 10 mM lysine/5% sorbitol

SMILES: CC(=O)O[C@H]1C(=O)[C@@]2(C)[C@H]([C@H](OC(=O)c3ccccc3)[C@]3(O)C[C@H](OC(=O)[C@H](O)[C@@H](NC(=O)c4ccccc4)c4ccccc4)C(C)=C1C3(C)C)[C@]1(OC(C)=O)CO[C@@H]1C[C@@H]2O [Paclitaxel, paclitaxel]
- Paclitaxel levels in plasma [1]: below the limit of detection
- minimum inhibitory concentration required to induce microtubule bundling and other cytotoxic effects in vitro (microtubule bundling): 0.085 µg/mL (≈ 0.0995 µM)

SMILES: CCCCN1CCCCC1C(=O)Nc1c(C)cccc1C (centres unmarked) [bupivacaine free-base, bupivacaine]
- relative solubility in tricaprylin and triolein [2]: more soluble in tricaprylin than in triolein
- bupivacaine content at which no precipitates were seen, in tricaprylin [2, 3]: ≤ 40 mg per g tricaprylin
- bupivacaine content at which no precipitates were seen, in triolein [2, 3]: ≤ 20 mg per g triolein
- bupivacaine content at which precipitates or large masses were seen, in tricaprylin [2, 3]: ≥ 50 mg per g tricaprylin
- bupivacaine content at which precipitates or large masses were seen, in triolein [2, 3]: ≥ 30 mg per g triolein

SMILES: CCCCN1CCCCC1C(=O)Nc1c(C)cccc1C (centres unmarked) [bupivacaine solution, bupivacaine HCl monohydrate]
- time for response to decay to half of its maximum (response to pin pricks): about 3.6 hours
